Patent US20260355196A1, “INHIBITORS AND DEGRADERS OF PIP4K PROTEIN” (Larkspur Biosciences, Inc., priority 2023, published 2026)

Biological target: T1, PIP4K2C (Homo sapiens, UniProt Q8TBX8)
T1 sequence (Q8TBX8 1-421): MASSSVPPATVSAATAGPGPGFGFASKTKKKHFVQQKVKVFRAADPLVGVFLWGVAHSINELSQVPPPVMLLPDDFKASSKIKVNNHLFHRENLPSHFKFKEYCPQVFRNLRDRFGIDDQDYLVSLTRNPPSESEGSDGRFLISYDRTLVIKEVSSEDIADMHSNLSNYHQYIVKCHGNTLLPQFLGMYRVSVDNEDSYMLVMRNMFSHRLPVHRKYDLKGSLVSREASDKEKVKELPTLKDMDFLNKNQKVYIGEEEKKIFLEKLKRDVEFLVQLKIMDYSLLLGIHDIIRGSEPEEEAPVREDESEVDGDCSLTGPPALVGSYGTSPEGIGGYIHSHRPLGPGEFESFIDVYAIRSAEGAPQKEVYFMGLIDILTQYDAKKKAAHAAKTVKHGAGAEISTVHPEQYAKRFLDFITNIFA
Assay: HiBiT PIP4K2C degradation assay in MOLT-4 cells (endogenous PIP4K2C C-terminally tagged with HiBiT)
Type: cell-based
Parameters: untagged in primary human PBMCs and monocyte-derived dendritic cells
Settings: 6 hours of incubation time, rather than 24 hours; MOLT-4, top concentration 10 micromolar; read-out: HiBIT-degradation MOLT4 PIP4k2C DC50 (6 hours, marked *)
Outline: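 DC50 derived by Hill fit of luminescence from Nano-Glo HiBiT lytic detection. Cells were HiBiT knock-in MOLT-4 (C-terminal tag on endogenous PIP4K2C), exposed 6 h or 24 h at 37 C to compound, top concentration 10 micromolar, 3-fold steps, 10 points, duplicates.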

Row | Compound | DC50 [nM]
1 | O=C1CCC(Nc2ccc(C3CCN([C@H]4CC[C@H](NC(=O)[C@H]5CC[C@H](Nc6ncc(F)c(-c7cccc(N8CCCCC8=O)c7)n6)CC5)CC4)CC3)c(F)c2)C(=O)N1 (stereo partly drawn) [Compound 565, trans-N-(trans-4-(4-(4-((2,6-dioxopiperidin-3-yl)amino)-2-fluorophenyl)piperidin-1-yl)cyclohexyl)-4-((5-fluoro-4-(3-(2-oxopiperidin-1-yl)phenyl)pyrimidin-2-yl)amino)cyclohexane-1-carboxamide] | < 500
2 | O=C1CCC(Nc2ccc(C3CCN([C@H]4CC[C@H](C(=O)N[C@H]5CC[C@H](Nc6ncc(F)c(-c7cccc(N8CCCCC8=O)n7)n6)CC5)CC4)CC3)c(F)c2)C(=O)N1 (stereo partly drawn) [Compound 566, trans-(1r,4R)-4-(4-(4-((2,6-dioxopiperidin-3-yl)amino)-2-fluorophenyl)piperidin-1-yl)-N-((1r,4R)-4-((5-fluoro-4-(6-(2-oxopiperidin-1-yl)pyridin-2-yl)pyrimidin-2-yl)amino)cyclohexyl)cyclohexane-1-carboxamide] | < 500
3 | O=C1CCC(Nc2ccc(C3CCN([C@H]4CC[C@H](C(=O)N[C@H]5CC[C@H](Nc6ncc(F)c(-c7cccc(-n8ccccc8=O)n7)n6)CC5)CC4)CC3)c(F)c2)C(=O)N1 (stereo partly drawn) [Compound 567, trans-(1r,4R)-4-(4-(4-((2,6-dioxopiperidin-3-yl)amino)-2-fluorophenyl)piperidin-1-yl)-N-((1r,4R)-4-((5-fluoro-4-(2-oxo-2H-[1,2′-bipyridin]-6′-yl)pyrimidin-2-yl)amino)cyclohexyl)cyclohexane-1-carboxamide] | < 500
4 | O=C1CCC(Nc2ccc(C3CCN([C@H]4CC[C@H](C(=O)N[C@H]5CC[C@H](Nc6ncc(F)c(-c7cccc(N8CCOCC8=O)c7)n6)CC5)CC4)CC3)c(F)c2)C(=O)N1 (stereo partly drawn) [Compound 568, trans-(1r,4R)-4-(4-(4-((2,6-dioxopiperidin-3-yl)amino)-2-fluorophenyl)piperidin-1-yl)-N-((1r,4R)-4-((5-fluoro-4-(3-(3-oxomorpholino)phenyl)pyrimidin-2-yl)amino)cyclohexyl)cyclohexane-1-carboxamide] | < 500
5 | O=C1CCC(Nc2ccc(C3CCN([C@H]4CC[C@H](C(=O)N[C@H]5CC[C@H](Nc6ncc(F)c(-c7ccnc(C8(O)CCC8)c7)n6)CC5)CC4)CC3)c(F)c2)C(=O)N1 (stereo partly drawn) [Compound 569, trans-(1r,4R)-4-(4-(4-((2,6-dioxopiperidin-3-yl)amino)-2-fluorophenyl)piperidin-1-yl)-N-((1r,4R)-4-((5-fluoro-4-(2-(1-hydroxycyclobutyl)pyridin-4-yl)pyrimidin-2-yl)amino)cyclohexyl)cyclohexane-1-carboxamide] | < 500
6 | O=C1CCC(Nc2ccc(C3CCN([C@H]4CC[C@H](C(=O)N[C@H]5CC[C@H](Nc6ncc(F)c(-c7ccnc(N8CCOCC8=O)c7)n6)CC5)CC4)CC3)c(F)c2)C(=O)N1 (stereo partly drawn) [Compound 570, trans-(1r,4R)-4-(4-(4-((2,6-dioxopiperidin-3-yl)amino)-2-fluorophenyl)piperidin-1-yl)-N-((1r,4R)-4-((5-fluoro-4-(2-(3-oxomorpholino)pyridin-4-yl)pyrimidin-2-yl)amino)cyclohexyl)cyclohexane-1-carboxamide] | < 500
7 | O=C1CCC(Nc2ccc(C3CCN([C@H]4CC[C@H](C(=O)N[C@H]5CC[C@H](Nc6ncc(F)c(-c7ccnc(N8CCCCC8=O)c7)n6)CC5)CC4)CC3)c(F)c2)C(=O)N1 (stereo partly drawn) [Compound 571, trans-(1r,4R)-4-(4-(4-((2,6-dioxopiperidin-3-yl)amino)-2-fluorophenyl)piperidin-1-yl)-N-((1r,4R)-4-((5-fluoro-4-(2-(2-oxopiperidin-1-yl)pyridin-4-yl)pyrimidin-2-yl)amino)cyclohexyl)cyclohexane-1-carboxamide] | < 500
8 | O=C1CCC(Nc2ccc(C3CCN([C@H]4CC[C@H](C(=O)N[C@H]5CC[C@H](Nc6ncc(F)c(-c7ccnc(N8CCCOC8=O)c7)n6)CC5)CC4)CC3)c(F)c2)C(=O)N1 (stereo partly drawn) [Compound 572, trans-(1r,4R)-4-(4-(4-((2,6-dioxopiperidin-3-yl)amino)-2-fluorophenyl)piperidin-1-yl)-N-((1r,4R)-4-((5-fluoro-4-(2-(2-oxo-1,3-oxazinan-3-yl)pyridin-4-yl)pyrimidin-2-yl)amino)cyclohexyl)cyclohexane-1-carboxamide] | < 500
9 | O=C1CCC(Nc2ccc(C3CCN([C@H]4CC[C@H](C(=O)N[C@H]5CC[C@H](Nc6ncc(F)c(-c7ccnc(-n8ccccc8=O)c7)n6)CC5)CC4)CC3)c(F)c2)C(=O)N1 (stereo partly drawn) [Compound 573, trans-(1r,4R)-4-(4-(4-((2,6-dioxopiperidin-3-yl)amino)-2-fluorophenyl)piperidin-1-yl)-N-((1r,4R)-4-((5-fluoro-4-(2-oxo-2H-[1,2′-bipyridin]-4′-yl)pyrimidin-2-yl)amino)cyclohexyl)cyclohexane-1-carboxamide] | < 500
10 | Cc1ccc(=O)n(-c2cccc(-c3nc(N[C@H]4CC[C@H](NC(=O)[C@H]5CC[C@H](N6CCC(c7ccc(NC8CCC(=O)NC8=O)cc7F)CC6)CC5)CC4)ncc3F)c2)c1 (stereo partly drawn) [Compound 574, trans-(1r,4R)-4-(4-(4-((2,6-dioxopiperidin-3-yl)amino)-2-fluorophenyl)piperidin-1-yl)-N-((1r,4R)-4-((5-fluoro-4-(3-(5-methyl-2-oxopyridin-1 (2H)-yl)phenyl)pyrimidin-2-yl)amino)cyclohexyl)cyclohexane-1-carboxamide] | < 500
11 | O=C1CCC(Nc2ccc(N3CCC(N4CC5(CC(C(=O)N[C@H]6CC[C@H](Nc7ncc(F)c(-c8cccc(-n9ccccc9=O)c8)n7)CC6)C5)C4)CC3)c(F)c2)C(=O)N1 (stereo partly drawn) [Compound 575, trans-2-(1-(4-((2,6-dioxopiperidin-3-yl)amino)-2-fluorophenyl)piperidin-4-yl)-N-((1r,4r)-4-((5-fluoro-4-(3-(2-oxopyridin-1(2H)-yl)phenyl)pyrimidin-2-yl)amino)cyclohexyl)-2-azaspiro[3.3]heptane-6-carboxamide] | < 500
12 | O=C1CCC(Nc2ccc(C3CCN([C@H]4CC[C@H](C(=O)N[C@H]5CC[C@H](Nc6ncc(F)c(-c7cccc(N8CCCOC8=O)c7)n6)CC5)CC4)CC3)c(F)c2)C(=O)N1 (stereo partly drawn) [Compound 576, trans-(1r,4R)-4-(4-(4-((2,6-dioxopiperidin-3-yl)amino)-2-fluorophenyl)piperidin-1-yl)-N-((1r,4R)-4-((5-fluoro-4-(3-(2-oxo-1,3-oxazinan-3-yl)phenyl)pyrimidin-2-yl)amino)cyclohexyl)cyclohexane-1-carboxamide] | < 500
13 | O=C1CC[C@@H](Nc2ccc(N3CCC(N4CCC(C(=O)N[C@H]5CC[C@H](Nc6ncc(F)c(-c7cccc(-c8ccc[nH]c8=O)c7)n6)CC5)CC4)CC3)c(F)c2)C(=O)N1 [Compound 577, trans-1′-(4-(((R)-2,6-dioxopiperidin-3-yl)amino)-2-fluorophenyl)-N-((1r,4r)-4-((5-fluoro-4-(3-(2-oxo-1,2-dihydropyridin-3-yl)phenyl)pyrimidin-2-yl)amino)cyclohexyl)-[1,4′-bipiperidine]-4-carboxamide] | > 5000
14 | O=C1CCC(Nc2ccc(C3CCN(CC4(O)CCN(C(=O)[C@H]5CC[C@H](Nc6ncc(F)c(-c7cccc(N8CCOCC8=O)c7)n6)CC5)CC4)CC3)c(F)c2)C(=O)N1 (stereo partly drawn) [Compound 578, trans-3-((3-fluoro-4-(1-((1-(4-((5-fluoro-4-(3-(3-oxomorpholino)phenyl)pyrimidin-2-yl)amino)cyclohexane-1-carbonyl)-4-hydroxypiperidin-4-yl)methyl)piperidin-4-yl)phenyl)amino)piperidine-2,6-dione] | < 500
15 | O=C1CCC(Nc2ccc(C3CCN(CC4(O)CCN(C(=O)[C@H]5CC[C@H](Nc6ncc(F)c(-c7cccc(N8CCCCC8=O)c7)n6)CC5)CC4)CC3)c(F)c2)C(=O)N1 (stereo partly drawn) [Compound 579, 3-((3-fluoro-4-(1-((1-(trans-4-((5-fluoro-4-(3-(2-oxopiperidin-1-yl)phenyl)pyrimidin-2-yl)amino)cyclohexane-1-carbonyl)-4-hydroxypiperidin-4-yl)methyl)piperidin-4-yl)phenyl)amino)piperidine-2,6-dione] | < 500
16 | O=C1CCC(Nc2ccc(C3CCN(CC4(O)CCN(C(=O)[C@H]5CC[C@H](Nc6ncc(F)c(-c7cccc(N8CCCOC8=O)c7)n6)CC5)CC4)CC3)c(F)c2)C(=O)N1 (stereo partly drawn) [Compound 580, trans-3-((3-fluoro-4-(1-((1-(4-((5-fluoro-4-(3-(2-oxo-1,3-oxazinan-3-yl)phenyl)pyrimidin-2-yl)amino)cyclohexane-1-carbonyl)-4-hydroxypiperidin-4-yl)methyl)piperidin-4-yl)phenyl)amino)piperidine-2,6-dione] | < 500
17 | O=C1CCC(Nc2ccc(C3CCN(CC4(O)CCN(C(=O)[C@H]5CC[C@H](Nc6ncc(F)c(-c7cccc(-c8ccc[nH]c8=O)c7)n6)CC5)CC4)CC3)c(F)c2)C(=O)N1 (stereo partly drawn) [Compound 581, 3-((3-fluoro-4-(1-((1-(trans-4-((5-fluoro-4-(3-(2-oxo-1,2-dihydropyridin-3-yl)phenyl)pyrimidin-2-yl)amino)cyclohexane-1-carbonyl)-4-hydroxypiperidin-4-yl)methyl)piperidin-4-yl)phenyl)amino)piperidine-2,6-dione] | < 500
